Laboratory results reported in US5750754A, “Heterocyclic compounds” (Zeneca Limited, priority 1993, dated 1998).
Counter-ions that a name gives are not always drawn.

Legend:
[1] = biological target: T1, purified human platelet fibrinogen receptor (GPIIb/IIIa) (Homo sapiens, UniProt P05106+P08514); experiment: Test (b): GPIIb/IIIa ELISA, inhibition of biotinylated fibrinogen binding; settings: purified human platelet GPIIb/IIIa, ELISA; for IC50: read-out: Test (b): pIC50 (-log(IC50)), 50% inhibition of biotinylated fibrinogen binding to GPIIb/IIIa (converted)
T1 construct: is isolated from human platelet lysates; from tissue
Outline: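 Inhibition of biotinylated fibrinogen ([…]) binding to immobilised human platelet fibrinogen receptor, purified by KYGRGDS peptide affinity chromatography, was measured after 2 h at 30 °C. Readout: streptavidin–biotin-HRP colour with TMB at […]; value expressed as pIC50.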

[2] = biological target: T2, human, citrated, platelet-rich plasma (Homo sapiens, UniProt P05106+P08514); experiment: Test (a): inhibition of ADP stimulated platelet aggregation (Born); format: cell-based; settings: ADP induced aggregation of human platelet-rich plasma; for Kb: read-out: Test (a): pA2 value indicating potency of platelet aggregation inhibition (converted)
T2 construct: aggregating human, citrated, platelet-rich plasma; endogenous in cells; host or cells: human platelets in citrated platelet-rich plasma
Outline: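 pA2 calculated by comparing ADP EC50-type (50% response) values in presence and absence of compound, averaged across concentrations (generally 10-^5 M to 10-^10 M). Aggregation (Born) induced by ADP in citrated human platelet-rich plasma, giving dose-response curves.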

T1 sequence (P08514 32-887 limits assumed): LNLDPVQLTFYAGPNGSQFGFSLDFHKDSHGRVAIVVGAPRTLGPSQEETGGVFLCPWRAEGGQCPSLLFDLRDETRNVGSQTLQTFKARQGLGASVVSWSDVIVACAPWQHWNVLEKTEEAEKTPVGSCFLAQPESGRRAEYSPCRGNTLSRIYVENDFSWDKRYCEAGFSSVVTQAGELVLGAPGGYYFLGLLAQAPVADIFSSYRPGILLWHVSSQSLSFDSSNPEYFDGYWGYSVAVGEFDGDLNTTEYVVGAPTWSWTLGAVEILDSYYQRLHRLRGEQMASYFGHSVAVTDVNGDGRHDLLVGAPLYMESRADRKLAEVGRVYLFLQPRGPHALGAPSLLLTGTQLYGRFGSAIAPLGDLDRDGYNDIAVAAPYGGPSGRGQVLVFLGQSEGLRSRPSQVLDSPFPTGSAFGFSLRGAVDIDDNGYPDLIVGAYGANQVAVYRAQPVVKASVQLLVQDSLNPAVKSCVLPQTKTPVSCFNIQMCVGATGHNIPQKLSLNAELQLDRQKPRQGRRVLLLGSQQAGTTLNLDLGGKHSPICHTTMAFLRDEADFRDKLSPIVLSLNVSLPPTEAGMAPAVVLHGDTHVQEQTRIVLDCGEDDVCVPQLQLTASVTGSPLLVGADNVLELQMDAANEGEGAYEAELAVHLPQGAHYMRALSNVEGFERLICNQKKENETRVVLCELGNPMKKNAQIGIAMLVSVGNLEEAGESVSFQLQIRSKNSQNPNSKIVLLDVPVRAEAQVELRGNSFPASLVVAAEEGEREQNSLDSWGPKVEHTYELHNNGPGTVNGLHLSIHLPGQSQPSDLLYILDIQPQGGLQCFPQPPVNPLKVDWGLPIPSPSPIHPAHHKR
T1 sequence (P08514 891-1039 limits assumed): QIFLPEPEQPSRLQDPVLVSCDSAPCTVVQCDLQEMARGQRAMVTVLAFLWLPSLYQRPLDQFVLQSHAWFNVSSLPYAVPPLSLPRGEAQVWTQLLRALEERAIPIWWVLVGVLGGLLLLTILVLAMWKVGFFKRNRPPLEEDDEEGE
T1 sequence (P05106 27-788): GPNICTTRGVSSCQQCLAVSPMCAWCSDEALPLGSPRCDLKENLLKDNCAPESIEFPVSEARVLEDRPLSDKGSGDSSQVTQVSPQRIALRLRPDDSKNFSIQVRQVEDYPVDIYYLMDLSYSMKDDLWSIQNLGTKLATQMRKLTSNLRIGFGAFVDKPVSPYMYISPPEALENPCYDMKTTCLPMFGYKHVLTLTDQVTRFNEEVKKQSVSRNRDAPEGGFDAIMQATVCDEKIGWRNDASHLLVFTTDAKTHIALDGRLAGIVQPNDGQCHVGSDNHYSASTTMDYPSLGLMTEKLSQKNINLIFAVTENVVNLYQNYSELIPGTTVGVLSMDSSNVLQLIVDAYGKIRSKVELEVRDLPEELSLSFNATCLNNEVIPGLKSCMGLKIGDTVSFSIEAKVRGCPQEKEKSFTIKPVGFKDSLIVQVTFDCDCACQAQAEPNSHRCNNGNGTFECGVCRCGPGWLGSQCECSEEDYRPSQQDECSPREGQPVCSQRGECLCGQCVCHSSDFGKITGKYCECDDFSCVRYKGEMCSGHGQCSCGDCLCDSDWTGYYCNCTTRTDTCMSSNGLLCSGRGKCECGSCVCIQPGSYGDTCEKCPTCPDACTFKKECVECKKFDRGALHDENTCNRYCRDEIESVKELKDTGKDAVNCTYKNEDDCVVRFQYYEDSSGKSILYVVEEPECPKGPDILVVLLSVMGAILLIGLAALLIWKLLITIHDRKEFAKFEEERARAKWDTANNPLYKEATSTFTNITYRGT
T2 sequence (P08514 32-887 limits assumed): as the sequence (P08514 32-887 limits assumed) above
T2 sequence (P08514 891-1039 limits assumed): as the sequence (P08514 891-1039 limits assumed) above
T2 sequence (P05106 27-788): as the sequence (P05106 27-788) above

Molecule `O=C(O)Cc1ccc(NC(=O)C2CCN(c3ccncc3)CC2)cc1` [Example 169] has an IC50 [1] of 10000 nM and a Kb [2] of 39800 nM.

In the case of `COC(=O)CC(C)NC(=O)c1ccc(N2CCN(c3ccncc3)CC2)cc1` (stereo not drawn) [Example 60, Methyl 3-[4-[4-(4-pyridyl)piperazin-1-yl]benzamido]butyrate], the IC50 [1] is reported as 15800 nM and the Kb [2] is reported as 10000 nM.

With `Cc1cc(N2CCN(CC(=O)c3ccc(OCC(=O)O)cc3)CC2)c2ccccc2n1` [Example 42, 4-[2-[4-(2-Methyl-4-quinolinyl)piperazin-1-yl]acetyl]phenoxyacetic acid] the IC50 [1] was 6310 nM and the Kb [2] was 50100 nM.

Work on `O=C(O)COc1ccc2nc(N3CCN(c4ccncc4)CC3)ccc2c1` [Example 73, 2-[4-(4-Pyridyl)piperazin-1-yl]quinolin-6-yloxyacetic acid] yielded an IC50 [1] of 63.1 nM and a Kb [2] of 501 nM.

`O=C(O)C[C@H](NC(=O)CNC(=O)CN1CCN(c2ccncc2)CC1)C(=O)NCCc1ccccc1` [Example 194, (S)-3-[N-(2-Phenethyl)carboxamido]-3-[N-[N-2-[4-(4-pyridyl)piperazin-1-yl]acetyl]glycyl]aminopropionic acid, trifluoroacetate] showed an IC50 [1] of 126 nM and a Kb [2] of 3980 nM.

Work on `Cc1cc(C(=O)CN2CCN(c3ccncc3)CC2)ccc1OCC(=O)O` [Example 127, 4-[2-[4-(4-Pyridyl)piperazin-1-yl]acetyl]-2-methyl-phenoxyacetic acid, dihydrochloride] yielded an IC50 [1] of 200 nM and a Kb [2] of 1580 nM.

With `CCCc1cc(N2CCN(c3ccncc3)CC2)ccc1OCCCC(=O)OCC` [Example 207, Ethyl 4-[2-n-propyl-4-[4-(4-pyridyl)piperazin-1-yl]phenoxy]butyrate] the IC50 [1] was 1000 nM and the Kb [2] was 316 nM.

`O=C(O)CSc1ccc(C(=O)CN2CCN(c3ccncc3)CC2)cc1` [Example 10] was tested, and the IC50 [1] was 1000 nM and the Kb [2] was 2000 nM.

With `Cc1ccc(S(=O)(=O)NCc2ccc(CCN3CCN(c4ccncc4)CC3)cc2)cc1` [Example 186] the IC50 [1] was 1260 nM and the Kb [2] was 5010 nM.

Work on `CCCCC(=O)N[C@@H](Cc1ccc(OCC2CCN(c3ccncc3)CC2)cc1)C(=O)OC` [Example 92, Methyl 2-S-(pentanoylamino)-3-[4-[1-(4-pyridyl)piperidin-4-yl]methoxyphenyl]propionate] yielded an IC50 [1] of 79.4 nM and a Kb [2] of 2000 nM.

Molecule `O=C(O)COc1ccc2nccc(N3CCN(c4ccncc4)CC3)c2c1` [Example 71, 4-[[4-(4-Pyridyl)piperazin-1-yl]quinolin-6-yl]oxyacetic acid] has an IC50 [1] of 39800 nM and a Kb [2] of 12600 nM.

In the case of `CCCCS(=O)(=O)NCC1CCN(C(=O)CN2CCN(c3ccncc3)CC2)CC1` [Example 115, N-[1-[2-[4-(4-Pyridiyl)piperazin-1-yl]acetyl]piperidin-4-ylmethyl]-1-butanesulphonamide], the IC50 [1] is reported as > 100000 nM and the Kb [2] is reported as 3980 nM.

In the case of `CN(Cc1ccc(-c2ccc(OCC(=O)O)cc2)cc1)c1ccncc1` [Example 75, 4-[4'-[N-Methyl-N-(4-pyridyl)]aminomethyl]biphenyloxyacetic acid], the IC50 [1] is reported as 3980 nM and the Kb [2] is reported as 31600 nM.

`CCOC(=O)Cc1ccc(C(=O)CN2CCN(c3ccncc3)CC2)cc1` [Example 14, Ethyl 4-[2-[4-(4-pyridyl)piperazin-1-yl]acetyl]phenylacetate] was tested, and the IC50 [1] was > 100000 nM and the Kb [2] was 7940 nM.

In the case of `COC(=O)COc1ccc(NC(=O)CC2CCN(c3ccncc3)CC2)cc1` [Example 165], the IC50 [1] is reported as 20000 nM and the Kb [2] is reported as 1260 nM.

In the case of `COC(=O)C(Cc1ccc(OCc2cnccc2N(C)C)cc1)NC(=O)OCc1ccccc1` (stereo not drawn) [Example 114, Methyl3-(4-dimethylamninopyrid-3-yl)methoxyphenoxyl-2-benzyloxycarbonylaminopropanoate], the IC50 [1] is reported as 2510 nM and the Kb [2] is reported as > 100000 nM.

In the case of `O=C(O)COc1ccc(C(=O)CC2CCN(c3ccncc3)CC2)cc1` [Example 174, 4-[2-[1-(4Pyridyl)piperidin-4-yl]acetyl]phenoxyacetic acid hydrochloride], the IC50 [1] is reported as 5.01 to 10 nM and the Kb [2] is reported as 158 to 398 nM.

Molecule `COC(=O)CCNC(=O)CCCCN1CCN(c2ccncc2)CC1` [Example 197, Methyl 3-[5-[4-(4-pyridyl)piperazine-1-yl]petanoyl]aminopropionate] has an IC50 [1] of 15800 nM and a Kb [2] of 63100 nM.

For `CCn1cc(C(=O)O)c(=O)c2ccc(N3CCN(c4ccncc4)CC3)cc21` [Example 65, Ethyl-4-[4-(4-pyridyl)piperazin-1-yl]-4-quinolon-3-ylcarboxylic acid], the IC50 [1] was 2510 nM and the Kb [2] was 6310 nM.

`Cc1ccc(S(=O)(=O)NCc2ccc(C(=O)CN3CCN(c4ccncc4)CC3)cc2)cc1` [Example 21, N-[4-[2-[4-(4-Pyridyl)piperazin-1-yl]acetyl]phenyl]methyl-4-methylphenylsulphonamide] was tested, and the IC50 [1] was 158 to 501 nM and the Kb [2] was 63.1 to 158 nM.

`O=C(O)COc1ccc(C(=O)CN2CCN(c3ccncc3)CC2=O)cc1` [Example 62, 4-[2-[4-(4-Pyridyl)piperazin-2-one-1-yl]acetyl]phenoxyacetic acid] gave an IC50 [1] of 7.94 nM and a Kb [2] of 2.51 to 12.6 nM.

`O=C(O)CCCCOc1ccc(N2CCN(c3ccncc3)CC2)cc1` [Example 53, 5-[4-[4-(4-Pyridyl)piperazin-1-yl]phenoxy]pentanoic acid] was tested, and the IC50 [1] was 1260 nM and the Kb [2] was 1580 nM.

`O=C(O)COc1ccc(C(=O)CN2CCN(c3ccncc3)CC2)c2ccccc12` [Example 124, 4-[2-[4-(4-Pyridyl)piperazin-1-yl]acetyl]naphthoxyacetic acid, dihydrochloride] was tested, and the IC50 [1] was 251 nM and the Kb [2] was 794 nM.

With `O=C(N[C@@H](Cc1ccc(OCCC2CCN(c3ccncc3)CC2)cc1)C(=O)O)OCc1ccccc1` [Example 94, 2-S-(Benzyloxycarbonylamino)-3-[4-[2-[1-(4-pyridyl)piperidin-4-yl]ethoxy]phenyl]propionic acid] the IC50 [1] was 2.51 nM and the Kb [2] was 316 nM.

Molecule `COC(=O)COc1ccc(CCN2CCN(c3ccncc3)CC2)cc1` [Example 147, Methyl 4-[2-[4-(4-pyridyl)piperazin-1-yl]ethyl]phenoxyacetate] has an IC50 [1] of 631 nM and a Kb [2] of 398 nM.

Work on `O=C(O)COc1ccc(C(=O)CN2CCN(c3ccnc4c3CCCC4)CC2)cc1` [Example 46, 4-[2-[4-(5,6,7,8-Tetrahydro-4-quinolinyl)piperazin-1-yl]acetyl]phenoxyacetic acid] yielded an IC50 [1] of 25.1 nM and a Kb [2] of 1000 nM.

`CCCCC(=O)N[C@@H](Cc1ccc(OCCC2CCN(c3ccncc3)CC2)cc1)C(=O)OC` [Example 91, Methyl 2-S-(pentanoylamino)-3-[4-[2-[1-(4-pyridyl)piperidin-4-yl]ethoxy]phenyl]propionate] gave an IC50 [1] of 200 nM and a Kb [2] of 158 nM.

Molecule `O=C(O)C[C@H](NC(=O)CNC(=O)CN1CCN(c2ccncc2)CC1)C(=O)N[C@@H](Cc1ccccc1)C(=O)O` [Example 40] has an IC50 [1] of 20 nM and a Kb [2] of 79.4 nM.

For `COC(=O)COc1ccc(C(=O)CC2CCN(c3ccncc3)CC2)cc1` [Example 173, Methyl 4-[2-[1-(4-pyridyl)piperidin-4-yl]acetyl]phenoxyacetate], the IC50 [1] was 200 nM and the Kb [2] was 1260 nM.

For `O=C(O)COC1CCN(C(=O)CN2CCN(c3ccncc3)CC2)CC1` [Example 32, 2-[1-[2-[4-(4-Pyridyl)piperazin-1-yl]acetyl]piperidin-4-yloxy]acetic acid], the IC50 [1] was 50.1 nM and the Kb [2] was 200 nM.

`CCCCS(=O)(=O)NC(CC(=O)OC)c1ccc(OCC2CCN(c3ccncc3)CC2)cc1` (stereo not drawn) [Example 97, Methyl 3-(n-butylsulphonylamino)-3-[4-[1-(4-pyridyl)piperidin-4-yl]-methoxyphenyl]propionate] was tested, and the IC50 [1] was 3160 nM and the Kb [2] was 3980 nM.

Work on `Cc1ccc(S(=O)(=O)Nc2ccc(C(=O)CN3CCN(c4ccncc4)CC3)cc2)cc1` [Example 19, N-[4-[2-[4-(4-Pyridyl)piperazin-1-yl]acetyl]phenyl-4-methylphenyl]-sulphonamide] yielded an IC50 [1] of 2000 nM and a Kb [2] of 2510 nM.

With `O=C(O)CCC(CC1CCN(C(=O)CN2CCN(c3ccncc3)CC2)CC1)C(=O)O` (stereo not drawn) [Example 112] the “Test (b): pIC50 (-log(IC50)), 50% inhibition of biotinylated fibrinogen binding to GPIIb/IIIa” value [1] was 5.5 and the “Test (a): pA2 value indicating potency of platelet aggregation inhibition” value [2] was 5.2.

In the case of `CCCCS(=O)(=O)N[C@H](Cc1ccc(OCC2CCN(c3ccncc3)CC2)cc1)C(=O)O` [Example 101], the IC50 [1] is reported as 31.6 nM and the Kb [2] is reported as 501 nM.

`COC(=O)COc1ccc(OCC2CCN(c3ccncc3)CC2)cc1` [Example 157, Methyl 4-[1-(4-pyridyl)piperidin-4-yl]methoxyphenoxyacetate] showed an IC50 [1] of 79.4 nM and a Kb [2] of 316 nM.

Molecule `O=C(O)CCCCOc1cccc(N2CCN(c3ccncc3)CC2)c1` [Example 229, 3-[4-(4-Pyridyl)piperazin-1-yl]phenoxypentanoic acid] has an IC50 [1] of 79.4 nM and a Kb [2] of 3980 nM.

`COC(=O)COc1ccc(C(=O)CN2CCN(c3cc(C)nc4ccccc34)CC2)cc1` [Example 41, Methyl 4-[2-[4-(2-methyl-4-quinolinyl)piperazin-1-yl]acetyl]phenoxyacetate] was tested, and the IC50 [1] was > 100000 nM and the Kb [2] was > 100000 nM.

For `O=C(O)CCCOc1ccc(N2CCN(c3ccncc3)CC2)cc1` [Example 200, 4-[4-[4-(4-Pyridyl)piperazine-1-yl]phenoxy]butyric acid, hydrochloride salt], the IC50 [1] was 3.98 nM and the Kb [2] was 12.6 nM.

Work on `COC(=O)[C@H](Cc1ccc(OCCC2CCN(c3ccncc3)CC2)cc1)NS(=O)(=O)Cc1ccccc1` [Example 86, Methyl 2-S-(benzylsulphonylamino)-3-[4-[2-[1-(4-pyridyl)piperidin-4-yl]ethoxy]phenyl]propionate] yielded an IC50 [1] of 200 nM and a Kb [2] of 3980 nM.
